In patent US20170368082A1, “FORMULATIONS OF BRINCIDOFOVIR” (priority 2016, published 2017):
Where two headings read alike, the source gives them in different places.

Experiment: Phase 2 toxicokinetics of brincidofovir and cidofovir in plasma
Type: in vivo, Sprague-Dawley CD rats
Settings: plasma; for AUC(0-t) / Cmax / Tmax / concentration at 1 h / concentration at 2 h / concentration at 8 h / concentration at 24 h / concentration at 0 h: Sprague-Dawley CD, rat; for AUC(0-t) / Cmax / Tmax: iv, brincidofovir in plasma; for Tmax: read-out: Tmax; for concentration at 1 h / concentration at 2 h / concentration at 8 h / concentration at 24 h / concentration at 0 h: intravenous
Protocol: Plasma samples (108) were collected 2 hours following the initiation of dosing on Day 1 and Day 7 (Group 1), or at 1, 2, 8, and 24 hours following the initiation of dosing on Day 1, and prior to administration and at 2, 8, and 24 hours following the initiation of dosing on Day 7 (Groups 2 and 3), and analyzed to determine the concentrations of brincidofovir and the metabolite, cidofovir), by LC/MS/MS.
Approximately 0.4 mL of whole blood was obtained via the tail vein from each animal at each time point. Animals were not fasted prior to blood collection. Blood was collected into tubes containing K2EDTA anticoagulant and placed on wet ice in an upright position, per facility SOP prior to processing. Plasma was separated by centrifugation (10 minutes at approximately 2000 g, at approximately 2-8° C.). Approximately 0.10 mL of plasma was transferred into a single cryotube appropriately labeled with study number, animal number, time point, date of sampling and sample type. Remaining plasma was transferred into a second cryotube and retained as a backup sample. Plasma frozen at approximately −80±10° C. within approximately 2 hours after collection of each blood sample until analysis. Animals were euthanized (CO2 inhalation) after the final blood collection.
In general, TK parameters were estimated using mean plasma concentrations of brincidofovir and cidofovir derived from the composite blood sampling design using Phoenix WinNonLin (V 6.3).
A composite blood sampling design was used such that each rat was sampled twice per sampling day. Blood was collected via tail vein from unanesthetized animals into tubes containing anticoagulant and placed on wet ice in an upright position. Animals were not fasted prior to blood collection. Plasma was separated by centrifugation (for 10 minutes at approximately 2000 g, at approximately 2-8° C.), and transferred into individually labeled cryotubes. All cryotubes containing the collected plasma samples were appropriately labeled as to study number, animal number, time point, date of sampling and sample type. All plasma samples were obtained and frozen at approximately −80° C. (±10° C.) within approximately 2 hours after collection of each blood sample until analysis.
Rat plasma bioanalysis was conducted by Pyxant Laboratories. Plasma samples were analyzed for concentrations of brincidofovir and cidofovir using a method based upon protein precipitation extraction followed by LC-MS/MS analysis; calibration ranges for brincidofovir and cidofovir were 1.00-1500 ng/mL and 5.00-750 ng/mL, respectively, (Pyxant study number 3025) for a 50 μL aliquot of rat plasma. Sample analysis for ISR was not performed as part of this non-GLP study.
For the generation of Mean Profiles, all sample concentrations that were below the limit of quantitation (BLQ) were set to 0.
All pharmacokinetic parameter estimates were completed using a Non-Compartmental Model (Model 200-202 for IV infusion administration). The AUClast and AUCinf were calculated using the linear up log down trapezoidal rule.

[1] = female, 15 mg/kg, 15 mg/kg 2-hour IV infusion, Female rats, Day 1
[2] = female, 15 mg/kg, 15 mg/kg 2-hour IV infusion, Female rats, Day 7
[3] = male, 1 mg/kg, brincidofovir 1 mg/kg 2-h IV infusion, male rats, Day 1, BLQ imputed as zero, read-out: Imputed Concentration, Mean
[4] = male, 1 mg/kg, brincidofovir 1 mg/kg 2-h IV infusion, male rats, Day 1, BLQ imputed as zero, read-out: Imputed Concentration, individual animals
[5] = male, 1 mg/kg, 1 mg/kg 2-hour IV infusion, Male rats, Day 1
[6] = male, 1 mg/kg, 1 mg/kg 2-hour IV infusion, Male rats, Day 7
[7] = male, 15 mg/kg, 15 mg/kg 2-hour IV infusion, Male rats, Day 1
[8] = male, 15 mg/kg, 15 mg/kg 2-hour IV infusion, Male rats, Day 7

CCCCCCCCCCCCCCCCOCCCOP(=O)(O)CO[C@H](CO)Cn1ccc(N)nc1=O [Brincidofovir]
AUC(0-t) [1]: 7360 ng·h/mL
Cmax [1]: 3470 ng/mL
Tmax [1]: 1 h
AUC(0-t) [2]: 3420 ng·h/mL
Cmax [2]: 1660 ng/mL
Tmax [2]: 2 h
concentration at 1 h [3]: 227 ng/mL
concentration at 1 h [4]: 156 ng/mL
concentration at 2 h [3]: 235 ng/mL
concentration at 2 h [4]: 220 ng/mL
concentration at 8 h (male, 1 mg/kg, brincidofovir 1 mg/kg 2-h IV infusion, male rats, Day 1, 8 h, BLQ imputed as zero, read-out: Imputed Concentration, Mean): 0 ng/mL
concentration at 8 h (male, 1 mg/kg, brincidofovir 1 mg/kg 2-h IV infusion, male rats, Day 1, 8 h, BLQ imputed as zero, read-out: Imputed Concentration, individual animals): 0 ng/mL
concentration at 24 h (male, 1 mg/kg, brincidofovir 1 mg/kg 2-h IV infusion, male rats, Day 1, 24 h, BLQ imputed as zero, read-out: Imputed Concentration, Mean): 0 ng/mL
concentration at 24 h (male, 1 mg/kg, brincidofovir 1 mg/kg 2-h IV infusion, male rats, Day 1, 24 h, BLQ imputed as zero, read-out: Imputed Concentration, individual animals): 0 ng/mL
concentration at 0 h (male, 1 mg/kg, brincidofovir 1 mg/kg 2-h IV infusion, male rats, Day 7, 0 h, BLQ imputed as zero, read-out: Imputed Concentration, Mean): 0 ng/mL
concentration at 0 h (male, 1 mg/kg, brincidofovir 1 mg/kg 2-h IV infusion, male rats, Day 7, 0 h, BLQ imputed as zero, read-out: Imputed Concentration, individual animals): 0 ng/mL
concentration at 24 h (male, 15 mg/kg, brincidofovir 15 mg/kg, Male, Day 1, 24 h, read-out: brincidofovir Imputed Mean Concentration (IMC)): 1.22 ng/mL
concentration at 24 h (male, 15 mg/kg, brincidofovir 15 mg/kg, Male, Day 1, 24 h, read-out: brincidofovir Mean Concentration (MC)): 1.22 ng/mL
concentration at 8 h (male, 15 mg/kg, brincidofovir 15 mg/kg, Male, Day 7, 8 h, read-out: brincidofovir Imputed Mean Concentration (IMC)): 8.72 ng/mL
concentration at 24 h (male, 15 mg/kg, brincidofovir 15 mg/kg, Male, Day 7, 24 h, read-out: brincidofovir Imputed Mean Concentration (IMC)): 1.45 ng/mL
concentration at 24 h (male, 15 mg/kg, brincidofovir 15 mg/kg, Male, Day 7, 24 h, read-out: brincidofovir Mean Concentration (MC)): 1.45 ng/mL
concentration at 8 h (male, 15 mg/kg, 15 mg/kg, male rats, Day 1, 8 h, read-out: C (Concentration), individual animals): 10.7 ng/mL
concentration at 8 h (male, 15 mg/kg, 15 mg/kg, male rats, Day 1, 8 h, read-out: IC (Imputed Concentration), individual animals): 10.7 ng/mL
concentration at 24 h (male, 15 mg/kg, 15 mg/kg, male rats, Day 1, 24 h, read-out: C (Concentration), individual animals): 1.2 ng/mL
concentration at 24 h (male, 15 mg/kg, 15 mg/kg, male rats, Day 1, 24 h, read-out: IC (Imputed Concentration), individual animals): 1.2 ng/mL
concentration at 8 h (male, 15 mg/kg, 15 mg/kg, male rats, Day 7, 8 h, read-out: C (Concentration), individual animals): 9.82 ng/mL
concentration at 8 h (male, 15 mg/kg, 15 mg/kg, male rats, Day 7, 8 h, read-out: IC (Imputed Concentration), individual animals): 9.82 ng/mL
concentration at 24 h (male, 15 mg/kg, 15 mg/kg, male rats, Day 7, 24 h, read-out: C (Concentration), individual animals): 1.85 ng/mL
concentration at 24 h (male, 15 mg/kg, 15 mg/kg, male rats, Day 7, 24 h, read-out: IC (Imputed Concentration), individual animals): 1.85 ng/mL
Cmax [5]: 235 ng/mL
Tmax [5]: 2 h
Cmax [6]: 208 ng/mL
Tmax [6]: 2 h
AUC(0-t) [7]: 8780 ng·h/mL
Cmax [7]: 4370 ng/mL
Tmax [7]: 1 h
AUC(0-t) [8]: 4090 ng·h/mL
Cmax [8]: 1910 ng/mL
Tmax [8]: 2 h
C (Concentration), individual animals (1 mg/kg, female rats, Day 1, 8 h, listed as BCV, 1 mg/kg): BLQ
C (Concentration), individual animals (1 mg/kg, female rats, Day 1, 24 h): BLQ
C (Concentration), individual animals (1 mg/kg, female rats, Day 7, 0 h): BLQ
C (Concentration), individual animals (1 mg/kg, female rats, Day 7, 8 h, listed as BCV, 1 mg/kg): BLQ
C (Concentration), individual animals (1 mg/kg, female rats, Day 7, 24 h): BLQ
C (Concentration), individual animals (1 mg/kg, male rats, Day 1, 8 h): BLQ
C (Concentration), individual animals (1 mg/kg, male rats, Day 1, 24 h): BLQ
C (Concentration), individual animals (1 mg/kg, male rats, Day 7, 0 h): BLQ
C (Concentration), individual animals (1 mg/kg, male rats, Day 7, 8 h): BLQ
C (Concentration), individual animals (1 mg/kg, male rats, Day 7, 24 h): BLQ
C (Concentration), individual animals (15 mg/kg, female rats, Day 7, 0 h): BLQ
